Data reported in US20230085307A1, “PYRIDAZINONE COMPOUND AND HERBICIDE” (NISSAN CHEMICAL CORPORATION, priority 2019, published 2023).

Assays:
[1] = system: Japanese bulrush; assay: Test Example 1: herbicidal activity, application before weed generation under submerged conditions (Table 16, symbol B); type: in vivo, Japanese bulrush (Schoenoplectus juncoides); conditions: 320 g/ha applied herbicide
Summary of the method: (§1)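 Emulsion formulation, water-diluted to set dose, was put onto the flooded surface (4 cm depth, alluvial soil) the same day weeds were sown and 2.5-leaf rice transplanted. After 3 weeks at 25-30 °C under glass, each species was rated 0 (≤5% kill) to 5 (≥90% kill).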

[2] = system: chickweed; assay: Test Example 4: herbicidal effect by soil treatment (Table 19, symbol P); type: in vivo, common chickweed (Stellaria media); conditions: amount of applied herbicide 320 g/ha
Summary of the method: (§2)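 Soil-surface application: an emulsion agent diluted with water to the predetermined dose is sprayed uniformly over seeds lying under roughly 1.5 cm of sterilized diluvial soil. Boxes stay in a greenhouse at 25° C. to 30° C. Three weeks later, each species is graded on previously defined criteria.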

[3] = system: Italian ryegrass; assay: Test Example 4: herbicidal effect by soil treatment (Table 19, symbol K); type: in vivo, Italian ryegrass (Lolium multiflorum); conditions: amount of applied herbicide 320 g/ha
Summary of the method: as §2

[4] = system: lambsquarters; assay: Test Example 5: herbicidal effect by foliage application, plastic box (Table 20, symbol O); type: in vivo, lambsquarters (Chenopodium album); conditions: foliage application, 320 g/ha, three weeks after application
Summary of the method: (§3)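 Sow seeds spot-wise in sterilized diluvial soil; cover with ~1.5 cm soil. Grow 14 days in greenhouse, 25° C. to 30° C. Spray foliage with emulsion diluted to predetermined amount. Rate effect after 3 weeks.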

[5] = system: blackgrass; assay: Test Example 4: herbicidal effect by soil treatment (Table 19, symbol J); type: in vivo, blackgrass (Alopecurus myosuroides); conditions: amount of applied herbicide 320 g/ha
Summary of the method: as §2

[6] = system: green foxtail; assay: Test Example 5: herbicidal effect by foliage application, plastic box (Table 20, symbol G); type: in vivo, green foxtail (Setaria viridis); conditions: foliage application, 320 g/ha, three weeks after application
Summary of the method: as §3

[7] = system: barnyard grass; assay: Test Example 5: herbicidal effect by foliage application, plastic box (Table 20, symbol H); type: in vivo, barnyard grass (Echinochloa crus-galli); conditions: foliage application, 320 g/ha, three weeks after application
Summary of the method: as §3

[8] = system: velvetleaf; assay: Test Example 5: herbicidal effect by foliage application, plastic box (Table 20, symbol M); type: in vivo, velvetleaf (Abutilon theophrasti); conditions: foliage application, 320 g/ha, three weeks after application
Summary of the method: as §3

[9] = system: Chinese sprangletop; assay: Test Example 3: herbicidal effect by foliage application, Wagner pot (Table 18, symbol D); type: in vivo, chinese sprangletop (Leptochloa chinensis); conditions: 320 g/ha
Summary of the method: (§4)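 Plants were sown in alluvial soil held under 0.1–0.5 cm standing water and grown 14 days in a greenhouse at 25–30 °C. An emulsifiable formulation, water-diluted to the set dose, was then sprayed onto the foliage, and effects were scored three weeks later using previously defined criteria.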

[10] = system: southern crabgrass; assay: Test Example 5: herbicidal effect by foliage application, plastic box (Table 20, symbol F); type: in vivo, southern crabgrass (Digitaria ciliaris); conditions: foliage application, 320 g/ha, three weeks after application
Summary of the method: as §3

[11] = system: oval-leafed pondweed; assay: Test Example 1: herbicidal activity, application before weed generation under submerged conditions (Table 16, symbol C); type: in vivo, oval-leafed pondweed (Monochoria vaginalis); conditions: 320 g/ha applied herbicide
Summary of the method: as §1

[12] = system: wild oat; assay: Test Example 5: herbicidal effect by foliage application, plastic box (Table 20, symbol I); type: in vivo, wild oat (Avena fatua); conditions: foliage application, 320 g/ha, three weeks after application
Summary of the method: as §3

[13] = system: southern crabgrass; assay: Test Example 4: herbicidal effect by soil treatment (Table 19, symbol F); type: in vivo, southern crabgrass (Digitaria ciliaris); conditions: amount of applied herbicide 320 g/ha
Summary of the method: as §2

[14] = system: windgrass; assay: Test Example 5: herbicidal effect by foliage application, plastic box (Table 20, symbol L); type: in vivo, windgrass (Apera spica-venti); conditions: foliage application, 320 g/ha, three weeks after application
Summary of the method: as §3

[15] = system: lambsquarters; assay: Test Example 4: herbicidal effect by soil treatment (Table 19, symbol O); type: in vivo, lambsquarters (Chenopodium album); conditions: amount of applied herbicide 320 g/ha
Summary of the method: as §2

[16] = system: Italian ryegrass; assay: Test Example 5: herbicidal effect by foliage application, plastic box (Table 20, symbol K); type: in vivo, Italian ryegrass (Lolium multiflorum); conditions: foliage application, 320 g/ha, three weeks after application
Summary of the method: as §3

[17] = system: persian speedwell; assay: Test Example 4: herbicidal effect by soil treatment (Table 19, symbol R); type: in vivo, Persian speedwell (Veronica persica); conditions: amount of applied herbicide 320 g/ha
Summary of the method: as §2

[18] = system: late watergrass; assay: Test Example 1: herbicidal activity, application before weed generation under submerged conditions (Table 16, symbol A); type: in vivo, late watergrass (Echinochloa oryzicola); conditions: 320 g/ha applied herbicide
Summary of the method: as §1

[19] = system: velvetleaf; assay: Test Example 4: herbicidal effect by soil treatment (Table 19, symbol M); type: in vivo, velvetleaf (Abutilon theophrasti); conditions: amount of applied herbicide 320 g/ha
Summary of the method: as §2

[20] = system: barnyard grass; assay: Test Example 4: herbicidal effect by soil treatment (Table 19, symbol H); type: in vivo, barnyard grass (Echinochloa crus-galli); conditions: amount of applied herbicide 320 g/ha
Summary of the method: as §2

[21] = system: persian speedwell; assay: Test Example 5: herbicidal effect by foliage application, plastic box (Table 20, symbol R); type: in vivo, Persian speedwell (Veronica persica); conditions: foliage application, 320 g/ha, three weeks after application
Summary of the method: as §3

[22] = system: wild oat; assay: Test Example 4: herbicidal effect by soil treatment (Table 19, symbol I); type: in vivo, wild oat (Avena fatua); conditions: amount of applied herbicide 320 g/ha
Summary of the method: as §2

[23] = system: green foxtail; assay: Test Example 4: herbicidal effect by soil treatment (Table 19, symbol G); type: in vivo, green foxtail (Setaria viridis); conditions: amount of applied herbicide 320 g/ha
Summary of the method: as §2

[24] = system: barnyard grass; assay: Test Example 3: herbicidal effect by foliage application, Wagner pot (Table 18, symbol H); type: in vivo, barnyard grass (Echinochloa crus-galli); conditions: 320 g/ha
Summary of the method: as §4

[25] = system: chickweed; assay: Test Example 5: herbicidal effect by foliage application, plastic box (Table 20, symbol P); type: in vivo, common chickweed (Stellaria media); conditions: foliage application, 320 g/ha, three weeks after application
Summary of the method: as §3

[26] = system: rice flat sedge; assay: Test Example 3: herbicidal effect by foliage application, Wagner pot (Table 18, symbol E); type: in vivo, rice flat sedge (Cyperus iria); conditions: 320 g/ha
Summary of the method: as §4

[27] = system: redroot pigweed; assay: Test Example 4: herbicidal effect by soil treatment (Table 19, symbol N); type: in vivo, redroot pigweed (Amaranthus retroflexus); conditions: amount of applied herbicide 320 g/ha
Summary of the method: as §2

[28] = system: blackgrass; assay: Test Example 5: herbicidal effect by foliage application, plastic box (Table 20, symbol J); type: in vivo, blackgrass (Alopecurus myosuroides); conditions: foliage application, 320 g/ha, three weeks after application
Summary of the method: as §3

[29] = system: redroot pigweed; assay: Test Example 5: herbicidal effect by foliage application, plastic box (Table 20, symbol N); type: in vivo, redroot pigweed (Amaranthus retroflexus); conditions: foliage application, 320 g/ha, three weeks after application
Summary of the method: as §3

SMILES: CCOc1ccccc1-c1sc2ccccc2c1-c1c(O)c(C)nn(C)c1=O [1-011]
- Herbicidal effect on B: Japanese bulrush (grade 0-5) [1]: 0 (Herbicidal rate of 5% or less (almost no effect))
- herbicidal effect rating, P: chickweed [2]: 5 (Herbicidal rate of 90% or more (almost completely withered))
- herbicidal effect rating, K: Italian ryegrass [3]: 3 (Herbicidal rate of 40% or more and less than 70%)
- herbicidal effect grade, O: lambsquarters [4]: 2 (Herbicidal rate of 20% or more and less than 40%)
- herbicidal effect rating, J: blackgrass [5]: 4 (Herbicidal rate of 70% or more and less than 90%)
- herbicidal effect grade, G: green foxtail [6]: 5 (Herbicidal rate of 90% or more (almost completely withered))
- herbicidal effect grade, H: barnyard grass [7]: 5 (Herbicidal rate of 90% or more (almost completely withered))
- herbicidal effect grade, M: velvetleaf [8]: 3 (Herbicidal rate of 40% or more and less than 70%)
- herbicidal effect on D (Chinese sprangletop), rating 0-5 [9]: 3 (Herbicidal rate of 40% or more and less than 70%)
- herbicidal effect grade, F: southern crabgrass [10]: 5 (Herbicidal rate of 90% or more (almost completely withered))
- Herbicidal effect on C: oval-leafed pondweed (grade 0-5) [11]: 0 (Herbicidal rate of 5% or less (almost no effect))
- herbicidal effect grade, I: wild oat [12]: 4 (Herbicidal rate of 70% or more and less than 90%)
- herbicidal effect rating, F: southern crabgrass [13]: 3 (Herbicidal rate of 40% or more and less than 70%)
- herbicidal effect grade, L: windgrass [14]: 4 (Herbicidal rate of 70% or more and less than 90%)
- herbicidal effect rating, O: lambsquarters [15]: 4 (Herbicidal rate of 70% or more and less than 90%)
- herbicidal effect grade, K: Italian ryegrass [16]: 4 (Herbicidal rate of 70% or more and less than 90%)
- herbicidal effect rating, R: persian speedwell [17]: 5 (Herbicidal rate of 90% or more (almost completely withered))
- Herbicidal effect on A: late watergrass (grade 0-5) [18]: 5 (Herbicidal rate of 90% or more (almost completely withered))
- herbicidal effect rating, M: velvetleaf [19]: 0 (Herbicidal rate of 5% or less (almost no effect))
- herbicidal effect rating, H: barnyard grass [20]: 5 (Herbicidal rate of 90% or more (almost completely withered))
- herbicidal effect grade, R: persian speedwell [21]: 5 (Herbicidal rate of 90% or more (almost completely withered))
- herbicidal effect rating, I: wild oat [22]: 2 (Herbicidal rate of 20% or more and less than 40%)
- herbicidal effect rating, G: green foxtail [23]: 5 (Herbicidal rate of 90% or more (almost completely withered))
- herbicidal effect on H (barnyard grass), rating 0-5 [24]: 5 (Herbicidal rate of 90% or more (almost completely withered))
- herbicidal effect grade, P: chickweed [25]: 5 (Herbicidal rate of 90% or more (almost completely withered))
- herbicidal effect on E (rice flat sedge), rating 0-5 [26]: 5 (Herbicidal rate of 90% or more (almost completely withered))
- herbicidal effect rating, N: redroot pigweed [27]: 4 (Herbicidal rate of 70% or more and less than 90%)
- herbicidal effect grade, J: blackgrass [28]: 5 (Herbicidal rate of 90% or more (almost completely withered))
- herbicidal effect grade, N: redroot pigweed [29]: 5 (Herbicidal rate of 90% or more (almost completely withered))
